{
  "source": "ChEMBL document CHEMBL4627388",
  "about": "“Structural Specificity of Flavonoids in the Inhibition of Human Fructose 1,6-Bisphosphatase” (J Nat Prod, 2020)",
  "data": [
    {"biological_target": "T1, Fructose-1,6-bisphosphatase 1 (Homo sapiens, UniProt P09467)", "T1 sequence (P09467 whole entry)": "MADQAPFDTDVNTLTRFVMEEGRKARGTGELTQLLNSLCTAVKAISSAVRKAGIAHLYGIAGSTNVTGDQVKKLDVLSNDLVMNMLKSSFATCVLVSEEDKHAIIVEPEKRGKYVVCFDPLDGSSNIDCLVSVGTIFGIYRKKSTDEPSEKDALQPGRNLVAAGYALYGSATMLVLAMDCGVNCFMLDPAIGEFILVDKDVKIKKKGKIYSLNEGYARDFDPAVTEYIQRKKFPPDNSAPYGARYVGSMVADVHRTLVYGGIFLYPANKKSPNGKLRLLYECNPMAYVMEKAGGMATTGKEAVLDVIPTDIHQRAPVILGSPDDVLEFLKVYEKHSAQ", "assay": "Inhibition of human liver FBP1 incubated for 5 mins by fluorescence method", "units": {"IC50": "µM"}, "values": [
      {"smiles": "O=c1cc(-c2ccccc2)oc2cc(O)c(O)c(O)c12", "note": "[BAICALEIN]", "IC50": 29},
      {"smiles": "Nc1ncnc2c1ncn2[C@@H]1O[C@H](COP(=O)(O)O)[C@@H](O)[C@H]1O", "note": "[ADENOSINE PHOSPHATE]", "IC50": 2.6},
      {"smiles": "O=c1c(O)c(-c2ccc(O)c(O)c2)oc2c(O)c(O)cc(O)c12", "note": "[GOSSYPETIN]", "IC50": 24},
      {"smiles": "O=c1c(O)c(-c2ccc(O)cc2)oc2c(O)c(O)cc(O)c12", "note": "[HERBACETIN]", "IC50": 8.7},
      {"smiles": "O=c1cc(-c2ccc(O)cc2)oc2cc(O)c(O)c(O)c12", "note": "[SCUTELLAREIN]", "IC50": 38.2}
    ]},
    {"biological_target": "T2, Fructose-1,6-bisphosphatase 1 (Homo sapiens) (UniProt P09467)", "T2 sequence (whole entry)": "T1 sequence (P09467 whole entry)", "assay": "Inhibition of human liver FBP1 at 200 uM incubated for 5 mins by fluorescence method relative to control", "units": {"inhibition": "%"}, "values": [
      {"smiles": "COc1cc2oc(-c3ccccc3)cc(=O)c2c(OC)c1OC", "inhibition": "< 20"},
      {"smiles": "O=c1c(O)c(-c2ccc(O)c(O)c2)oc2c(O)c(O)ccc12", "inhibition": "< 20"},
      {"smiles": "COc1ccc2c(=O)c(O)c(-c3ccc(O)c(O)c3)oc2c1OC", "inhibition": "< 20"},
      {"smiles": "O=c1cc(-c2ccc(O)cc2)oc2cc(O)cc(O)c12", "inhibition": "< 20"},
      {"smiles": "O=c1cc(-c2cccc(O)c2)oc2cc(O)ccc12", "inhibition": "< 20"},
      {"smiles": "O=c1c(O)c(-c2ccc(O)c(O)c2)oc2cc(O)cc(O)c12", "inhibition": "< 20"},
      {"smiles": "O=c1cc(-c2ccc(O)cc2)oc2cc(O)ccc12", "inhibition": "< 20"},
      {"smiles": "O=c1cc(-c2ccccc2)oc2cc(O)ccc12", "inhibition": "< 20"},
      {"smiles": "O=c1c(O)c(-c2cc(O)c(O)c(O)c2)oc2cc(O)cc(O)c12", "inhibition": "< 20"},
      {"smiles": "O=c1cc(-c2cccc(O)c2)oc2ccccc12", "inhibition": "< 20"},
      {"smiles": "O=c1cc(-c2ccccc2)oc2cc(O)cc(O)c12", "inhibition": "< 20"},
      {"smiles": "O=c1c(O)c(-c2ccc(O)c(O)c2)oc2c(O[C@@H]3O[C@H](CO)[C@@H](O)[C@H](O)[C@H]3O)c(O)cc(O)c12", "inhibition": "< 20"},
      {"smiles": "COc1ccc(-c2cc(=O)c3c(O)cc(O)cc3o2)cc1", "inhibition": "< 20"},
      {"smiles": "O=c1cc(-c2cccc(O)c2)oc2cccc(O)c12", "inhibition": "< 20"},
      {"smiles": "O=c1cc(-c2ccc(O)cc2)oc2ccccc12", "inhibition": "< 20"},
      {"smiles": "COc1cc2oc(-c3ccccc3)cc(=O)c2c(O)c1O", "inhibition": 46},
      {"smiles": "O=c1c(O)c(-c2cccc(O)c2)oc2cc(O)cc(O)c12", "inhibition": "< 20"},
      {"smiles": "O=c1c(Cl)c(-c2ccc(O)c(O)c2)oc2c(Cl)c(O)cc(O)c12", "inhibition": "< 20"},
      {"smiles": "O=c1cc(-c2ccc(O)cc2)oc2cccc(O)c12", "inhibition": "< 20"},
      {"smiles": "O=c1cc(-c2ccc(O)c(O)c2)oc2cc(O)ccc12", "inhibition": "< 20"},
      {"smiles": "O=C1c2c(O)cc(O)cc2O[C@H](c2ccc(O)c(O)c2)[C@H]1O", "inhibition": "< 20"},
      {"smiles": "O=c1c(O)c(-c2cccc(O)c2)oc2cc(O)ccc12", "inhibition": "< 20"},
      {"smiles": "O=C1C[C@@H](c2ccc(O)cc2)Oc2cc(O)cc(O)c21", "inhibition": "< 20"},
      {"smiles": "O=c1cc(-c2ccc(O)c(O)c2)oc2cc(O)cc(O)c12", "inhibition": 22},
      {"smiles": "O=c1c(O)c(-c2ccc(O)c(O)c2)oc2cc(O)c(O)c(O)c12", "inhibition": 37},
      {"smiles": "COc1ccc2c(=O)c(O)c(-c3ccc(OCc4ccccc4)c(OCc4ccccc4)c3)oc2c1OC", "inhibition": "< 20"},
      {"smiles": "O=c1c(O)c(-c2ccc(O)cc2)oc2cc(O)cc(O)c12", "inhibition": "< 20"},
      {"smiles": "O=c1cc(-c2ccc(O)c(O)c2)oc2ccccc12", "inhibition": 25},
      {"smiles": "O=c1cc(-c2ccccc2)oc2ccccc12", "inhibition": "< 20"},
      {"smiles": "O=C1C[C@@H](c2ccc(O)c(O)c2)Oc2cc(O)cc(O)c21", "inhibition": "< 20"},
      {"smiles": "O=c1c(Cl)c(-c2ccc(O)c(O)c2)oc2c(Cl)c(O)c(Cl)c(O)c12", "inhibition": "< 20"},
      {"smiles": "O=c1c(O)c(-c2ccc(O)cc2O)oc2cc(O)cc(O)c12", "inhibition": "< 20"},
      {"smiles": "COc1cc(-c2cc(=O)c3c(O)cc(O)cc3o2)ccc1O", "inhibition": "< 20"},
      {"smiles": "COc1ccc(-c2cc(=O)c3c(O)cc(O)cc3o2)cc1OC", "inhibition": "< 20"},
      {"smiles": "C[C@@H]1O[C@@H](OC[C@H]2O[C@@H](Oc3c(-c4ccc(O)c(O)c4)oc4cc(O)cc(O)c4c3=O)[C@H](O)[C@@H](O)[C@@H]2O)[C@H](O)[C@H](O)[C@H]1O", "inhibition": "< 20"},
      {"smiles": "COc1ccc(-c2oc3c(O)c(O)ccc3c(=O)c2O)cc1OC", "inhibition": 33},
      {"smiles": "COc1ccc(-c2oc3cc(OC)ccc3c(=O)c2O)cc1", "inhibition": "< 20"},
      {"smiles": "COc1ccc(-c2oc3ccccc3c(=O)c2O)cc1OC", "inhibition": "< 20"},
      {"smiles": "O=c1cc(-c2ccccc2)oc2cccc(O)c12", "inhibition": "< 20"},
      {"smiles": "O=c1cc(-c2ccc(O)c(O)c2)oc2cc(O)c(Cl)c(O)c12", "inhibition": "< 20"},
      {"smiles": "O=c1c(O)c(-c2ccc(O)cc2)oc2cc(O)ccc12", "inhibition": "< 20"},
      {"smiles": "O=c1c(O)c(-c2ccc(O)c(O)c2)oc2ccccc12", "inhibition": 20},
      {"smiles": "O=c1c(O)c(-c2ccccc2)oc2cc(O)cc(O)c12", "inhibition": "< 20"},
      {"smiles": "Oc1ccc(-c2[o+]c3c(O)c(O)cc(O)c3cc2O)cc1O", "inhibition": 46},
      {"smiles": "O=c1c(Cl)c(-c2ccc(O)c(O)c2)oc2cc(O)cc(O)c12", "inhibition": "< 20"},
      {"smiles": "O=c1cc(-c2ccc(O)c(O)c2)oc2c(Cl)c(O)cc(O)c12", "inhibition": "< 20"},
      {"smiles": "COc1cccc(-c2oc3cc(OC)ccc3c(=O)c2O)c1", "inhibition": "< 20"},
      {"smiles": "O=c1cc(-c2ccccc2)oc2c(O)c(O)cc(O)c12", "inhibition": "< 20"},
      {"smiles": "COc1ccc(-c2oc3c(OCc4ccccc4)c(OCc4ccccc4)ccc3c(=O)c2O)cc1OC", "inhibition": "< 20"},
      {"smiles": "O=C(O)[C@H]1O[C@@H](Oc2cc3oc(-c4ccccc4)cc(=O)c3c(O)c2O)[C@H](O)[C@@H](O)[C@@H]1O", "inhibition": "< 20"},
      {"smiles": "O=c1cc(-c2ccc(O)c(O)c2)oc2cccc(O)c12", "inhibition": "< 20"}
    ]}
  ]
}
